Measured values taken from article PMC5857911, “Inositol pyrophosphate synthesis by diphosphoinositol pentakisphosphate kinase-1 is regulated by phosphatidylinositol(4,5)bisphosphate” (Bioscience Reports, 2018).
Numbering of substitutions follows the chain as printed. pIC50: −log10 of the molar value.

Legend:
Type in all cases: biochemical
[1] = biological target: T1, PPIP5K1 (Homo sapiens, UniProt Q6PFW1); test: phosphatase assay of purified recombinant enzyme, […] InsP8 with [3H]InsP8, HPLC
T1 construct: full-length human PPIP5K1
T1 sequence (Q6PFW1 1-1433): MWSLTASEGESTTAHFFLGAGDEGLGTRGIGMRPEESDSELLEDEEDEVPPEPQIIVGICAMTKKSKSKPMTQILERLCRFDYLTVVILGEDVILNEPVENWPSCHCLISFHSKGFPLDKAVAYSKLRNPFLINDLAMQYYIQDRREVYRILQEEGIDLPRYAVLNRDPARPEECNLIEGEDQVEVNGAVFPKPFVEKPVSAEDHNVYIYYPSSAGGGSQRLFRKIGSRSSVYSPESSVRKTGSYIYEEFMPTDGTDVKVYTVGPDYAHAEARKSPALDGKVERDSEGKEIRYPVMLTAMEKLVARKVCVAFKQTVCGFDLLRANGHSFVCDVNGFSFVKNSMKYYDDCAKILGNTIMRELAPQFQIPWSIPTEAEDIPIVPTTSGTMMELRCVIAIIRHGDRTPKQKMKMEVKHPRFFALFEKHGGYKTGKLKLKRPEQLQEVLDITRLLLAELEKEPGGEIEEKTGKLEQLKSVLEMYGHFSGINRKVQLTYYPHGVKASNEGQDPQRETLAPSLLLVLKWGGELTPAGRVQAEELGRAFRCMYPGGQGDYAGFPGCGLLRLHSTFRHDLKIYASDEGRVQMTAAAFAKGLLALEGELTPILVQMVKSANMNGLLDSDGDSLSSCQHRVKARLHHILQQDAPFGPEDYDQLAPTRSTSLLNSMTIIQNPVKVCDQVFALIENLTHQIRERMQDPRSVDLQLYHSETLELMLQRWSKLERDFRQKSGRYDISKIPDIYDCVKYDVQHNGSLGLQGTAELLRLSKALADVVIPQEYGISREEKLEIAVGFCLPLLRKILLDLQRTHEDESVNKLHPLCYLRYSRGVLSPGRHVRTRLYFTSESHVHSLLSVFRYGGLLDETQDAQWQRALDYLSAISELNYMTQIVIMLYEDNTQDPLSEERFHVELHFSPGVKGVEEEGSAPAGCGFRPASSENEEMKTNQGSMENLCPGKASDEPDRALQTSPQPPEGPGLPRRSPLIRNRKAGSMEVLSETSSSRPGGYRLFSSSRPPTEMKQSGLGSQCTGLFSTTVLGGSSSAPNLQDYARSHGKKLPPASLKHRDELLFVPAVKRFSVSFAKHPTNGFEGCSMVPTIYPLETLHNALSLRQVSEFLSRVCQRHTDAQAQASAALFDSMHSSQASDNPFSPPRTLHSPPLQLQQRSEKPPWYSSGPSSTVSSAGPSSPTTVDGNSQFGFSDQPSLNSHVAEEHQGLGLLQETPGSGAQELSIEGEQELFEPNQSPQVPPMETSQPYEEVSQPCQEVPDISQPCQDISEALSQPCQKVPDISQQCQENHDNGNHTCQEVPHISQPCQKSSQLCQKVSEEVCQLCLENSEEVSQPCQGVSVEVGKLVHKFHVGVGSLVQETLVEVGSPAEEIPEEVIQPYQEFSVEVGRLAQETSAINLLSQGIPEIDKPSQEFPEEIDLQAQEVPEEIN

[2] = biological target: T1, PPIP5K1; test: InsP8 phosphatase assay with [3H]InsP8, HPLC, dose-response
[3] = biological target: T1, PPIP5K1; test: kinase assay of purified recombinant enzyme with […]-[3H]InsP7, HPLC, first-order conditions
[4] = biological target: T2, PPIP5K1 (Homo sapiens, UniProt Q6PFW1, R399A); test: kinase assay of purified phosphatase-compromised mutant, […] h, HPLC
T2 construct: full-length human PPIP5K1
T2 sequence (Q6PFW1 1-1433 R399A): T1 sequence (Q6PFW1 1-1433) with R399A

pIC50 [2] | SMILES | further results
 | O=P(O)(O)O[C@@H]1[C@@H](OP(=O)(O)O)[C@H](OP(=O)(O)OP(=O)(O)O)[C@@H](OP(=O)(O)O)[C@H](OP(=O)(O)OP(=O)(O)O)[C@@H]1OP(=O)(O)O [InsP8] | phosphatase assay of purified recombinant enzyme, 1 μM InsP8 with [3H]InsP8, HPL [1]: 7 ± 1 nmol/mg protein/min
~4.60 | CCCCCCCC(=O)OC[C@H](COP(=O)(O)O[C@H]1[C@H](O)[C@@H](O)[C@H](OP(=O)(O)O)[C@@H](OP(=O)(O)O)[C@H]1O)OC(=O)CCCCCCC [C8-PtdIns(3,4)P2] | 
 | O=P(O)(O)O[C@H]1[C@@H](OP(=O)(O)O)[C@H](OP(=O)(O)O)[C@@H](OP(=O)(O)OP(=O)(O)O)[C@H](OP(=O)(O)O)[C@H]1OP(=O)(O)O [5-InsP7] | kinase assay of purified recombinant enzyme with 5-[3H]InsP7, HPLC, first-order [3]: 0.07 min⁻¹; % / ng protein [4]: 6.9 ± 0.01 % / ng protein
~4.46 | CCCCCCCC(=O)OC[C@H](COP(=O)(O)O[C@H]1[C@H](O)[C@@H](OP(=O)(O)O)[C@H](OP(=O)(O)O)[C@@H](OP(=O)(O)O)[C@H]1O)OC(=O)CCCCCCC [C8-PtdIns(3,4,5)P3] | 
~4.40 | CCCCCCCC(=O)OC[C@H](COP(=O)(O)O[C@@H]1[C@H](O)[C@H](O)[C@@H](OP(=O)(O)O)[C@H](OP(=O)(O)O)[C@H]1O)OC(=O)CCCCCCC [C8-PtdIns(4,5)P2] | 
